Assay results as given in patent EP0454429B1, “Use of 15-dehydroxy-16-oxoprostaglandin derivatives in the treatment of allergic diseases” (R-TECH UENO, LTD., priority 1990, dated 1991).
pIC50: −log10 of the molar value.

What was measured:
contraction by histamine = assay: Inhibition of histamine-induced contraction of isolated guinea pig trachea (Test Example 1); assay type: cell-based; details: guinea pig trachea contracted with 5.4x10^-4M histamine, cumulative addition every 6 minutes; for IC20: concentration for 20% inhibition; for pIC50: concentration for 50% inhibition
Experimental: (§1) A guinea pig was sacrificed by knocking at the occipital region and then bleeding from the femoral artery. The trachea was removed, incised in the longitudinal direction at the opposite side of the smooth muscle and sectioned into sections of about 1 to 1.5 cm along the cartilage. Seven or eight sections were linked by a silk thread in chains. The sample was stretched by 1.0 g of tension in 15 ml of Tyrode's solution at 37°C under flow of the mixed gas of 95% O2 and 5% CO2. After resting for 60 to 90 minutes for stabilization, the sample was contracted with 5.4x10^-4M histamine and when the construction reached the constant value, the test compounds were accumulately added every 6 minutes, and the change in tension was recorded on a recorder (T-626DS, Nippon Denshi Kagaku, Japan) through an isometric transducer (1T-1, LABOX, Fukukensha, Japan).
Rate of inhibition by the test compounds of the contraction by histamine was expressed in percent, and IC20 and IC50 values were calculated as the concentration of the test compounds for 20% and 50% […], respectively.

[1] = system: contraction by leukotriene D4; assay: Inhibition of leukotriene D4-induced contraction of isolated guinea pig trachea (Test Example 3); assay type: cell-based; details: guinea pig trachea contracted with 1x10^-8M leukotriene D4; for IC20: concentration for 20% inhibition; for pIC50: concentration for 50% inhibition
Experimental: as §1, with “1x10^-8M leukotriene D4” for “5.4x10^-4M histamine”, “Densi” for “Denshi”
Rate of inhibition by the test compounds of the contraction by leukotriene D4 was expressed in percent, and IC20 and IC50 values were calculated as the concentration of the test compounds for 20% and 50% […], respectively.

conjunctive = assay: Histamine-induced conjunctival inflammation and dye leakage, ophthalmic administration (Test Example 6); assay type: in vivo, Female Wistar rats; set-up: Weight of Conjunctive (Mean±S.D.): dose or concentration left out as unconfirmed; details: for Weight of Conjunctive (Mean±S.D.): 3 minutes before Evans Blue and subconjunctival histamine, 30 minutes, control 41.5±2.0; for Dye (µg/part): dye extracted from conjunctive, absorption at 625 nm, control 8.26±0.52
Experimental: Female Wistar rats (weight: 90g) were used as the test animals. The animals received the test compounds and, 3 minutes after, 0.5ml of 0.5% Ebans Blue/physiological saline was administered through the caudal vein. Then, immediately after, 0.05ml of 0.1% histamine hydrochloride/physiological saline was injected subconjunctivally at an upper eyelid. After 30 minutes, the animals were sacrificed by vertebral cervial dislocation and the scalp was peeled away towards the eyelid. Part of skin and conjunctive showing inflammation was cut off and weighed. Then, said conjunctive was minced and extracted overnight with 4ml […] at 40°C with shaking. The dye in the conjunctive was assayed by measuring absorption of the extract at 625 nm. […] Control animals received the same amount of the physiological saline.

[2] = system: increase in the airway resistance by histamine; assay: Inhibition of histamine-induced increase in airway resistance, test compound i.v. (Test Example 2); assay type: in vivo; details: one minute before histamine (3 µg/kg), anesthetized guinea pig
Experimental: A guinea pig was intraperitoneally anesthetized with 1.0-1.2 g/kg urethane (Katayama Kagaku, Japan). The test animal was cannulated through the common carotid […] and the trachea, and then pancuronium bromide was intravenously administered at 0.3 mg/kg to stop the spontaneous respiration of the test animal. The animal was artificially respired using a respirater for a small animal (SN-480-7, Shinano Seisakusho, Japan) and bronchospasm transducer (7020, Ugo Basile). The overflowing air at 6-9 ml(air)/time, 60 times/minute and loading pressure of 10 cm H2O was recorded on a recorder (056-1001, Hitachi Seisakusho, Japan) through the bronchospasm transducer. Histamine (3 µg/kg) was administered several times at 30 minutes intervals, and when the increase in the airway resistance by histamine was established, the test compounds were intravenously administered one minute before the administration of histamine (3 µg/kg) to induce airway constriction. The difference of airway resistance before and after the administration of histamine was taken as 100% and activity of test compounds was shown in terms of percent inhibition of the increase due to histamine.

[3] = system: platelet activating factor (PAF); assay: Inhibition of PAF-induced increase in airway resistance, test compound i.v. (Test Example 4); assay type: in vivo, guinea pig; details: dose 10µg/kg i.v. one minute before PAF (50 ng/kg i.v.), n=2
Experimental: A guinea pig was intraperitoneally anesthetized with 1.2 g/kg urethane (Katayama Kagaku, Japan). The test animal was cannulated through the common carotid […] and the trachea, and then pancuronium bromide was intravenously administered at 0.3 mg/kg to stop the spontaneous respiration of the test animal. The animal was artificially respired using a respirater for a small animal (SN-480-7, Shinano Seisakusho, Japan) and bronchospasm transducer (7020, Ugo Basile). The overflowing air at 7-10 ml(air)/time, 60 times/minute and loading pressure of 10 cm H2O was recorded on a recorder (056-1001, Hitachi Seisakusho, Japan) through the bronchospasm transducer. When the base line was stabilized, platelet activating factor (PAF) (50 ng/kg) was intravenously administered. The increase in the airway resistance was determined taking the value at the complete occlusion of trachea as the maximum contraction (100%). The test compounds were intravenously administered one minute before the administration of PAF. The difference of airway resistance before and after the administration of 50 ng/kg PAF was taken as 100% and activity of test compound was shown in terms of percent inhibition of the increase due to PAF.

PCA reaction = assay: Passive cutaneous anaphylaxis (PCA) reaction in sensitized rats (Test Example 7); assay type: in vivo, Male Crj Wistar rats; details: Dose 10 µg/kg intravenously, n=16
Experimental: Male Crj Wistar rats (7 weeks old) were passively sensitized by injecting 50µl of diluted rat anti-EA (egg albumin) antiserum at the dorsal skin.
After 48 hours, 1 ml of a mixture consisting of equal amount of 1% EA (egg albumin) as the antigen in physiological saline and 1% Evans Blue in physiological saline was injected in the caudal vein to elicit the PCA reaction. After 30 minutes, the animals were killed by deep anesthetization and dorsal skin was ablated. The major and minor axes of reacted part, i.e. pigment-leaking site were measured and the average value of them was taken as the diameter, from which the area was calculated.
Then said site was punched and amount of the pigment was measured by the following method.
The punched site was dipped in 1ml of 1N aqueous potassium hydroxide and allowed to stand overnight at 37°C. Then 9ml of a mixed solution of 0.6N H3PO4: acetone (5:13) was added and the mixture was centrifuged. The supernatant was assayed for absorption at 620 nm using an absorption spectrophotometer. The amount of the pigment was determined by calibration curve which was obtained using the known amounts of the pigment.
The test compound was dissolved in the physiological saline and intravenously administered. The control animals intravenously received the physiological saline (5ml/kg) alone.

SMILES	IC20 (contraction by histamine; Cavia porcellus, 0.1 h)	IC20 ([1]; Cavia porcellus)	pIC50 ([1]; Cavia porcellus)	Weight of Conjunctive (Mean±S.D.) (conjunctive)	Dye (µg/part) (conjunctive)	pIC50 (contraction by histamine; Cavia porcellus, 0.1 h)	other results
CCCC(F)(F)C(=O)CCC[C@H]1[C@H](C)CC(=O)[C@@H]1C/C=C\CCCC(=O)OC [compound 4]	10000 nM	7000 nM	4.60				
CCCC(F)(F)C(=O)CCC[C@@H]1[C@@H](C/C=C\CCCC(=O)OC)[C@@H](O)C[C@H]1O [compound 7]	17000 nM	4000 nM	4.70				
CCCC(F)(F)C(=O)CCC[C@H]1C=CC(=O)[C@@H]1C/C=C\CCCC(=O)OC [compound 9]				38.9 ± 1.8 mg	7.49±0.67 µg/part		
CCCC(F)(F)C(=O)CCC[C@H]1[C@H](O)CC(=O)[C@@H]1C/C=C\CCCC(=O)OC [compound 1]	300 nM	160 nM	6.30	36.3 ± 2.1 mg	7.13±0.65 µg/part	5.92	Inhibition (%) ([2]; dose 10 µg/kg): 92%
CCCC(F)(F)C(=O)CCC[C@H]1[C@H](O)CC(=O)[C@@H]1C/C=C\CCCC(=O)OC(C)C [compound 3]	500 nM	180 nM	6.22			5.70	
CCCC(F)(F)C(=O)CCC[C@H]1C(=O)C[C@H](O)[C@@H]1C/C=C\CCCC(=O)OC [compound 8]				38.5 ± 2.0 mg	7.69±0.71 µg/part		
CCCC(F)(F)C(=O)CCCC1C(=O)CC(O)C1C/C=C\CCCC(=O)OC (stereo not drawn) [Test Compound 8, 13,14-dihydro-15-dehydroxy-16-oxo-17,17-difluoro-PGD2 methyl ester]				32.7 ± 1.8 mg			IC20 (contraction by histamine): 100 nM; pIC50 (contraction by histamine): 6.46; Inhibition (%) ([2]; dose 5 µg/kg): 93%; IC20 [1]: 40 nM; pIC50 [1]: 6.92; Increase in Resistance (%,mean) ([3]; complete occlusion of trachea = 100%, control 74.5): 11.5%; Inhibition (%) [3]: 84.6%; Amount(µg/site) (PCA reaction; amount of pigment in punched site, absorption at 620 nm, control 104.9±45.4): 38.0±15.9 µg/site; Area(mm^2) (PCA reaction; area of pigment-leaking site, 30 minutes after antigen, control 56.9±19.4): 33.7±7.5 mm^2
CCCC(F)(F)C(=O)CCC[C@H]1[C@H](O)CC(=O)[C@@H]1C/C=C\CCCC(=O)O [compound 2]	300 nM	300 nM	6.00			5.70	Inhibition (%) ([2]; dose 10 µg/kg): 78%
